Measured values from US4465674A, “Azahomoerythromycin D derivative and intermediates therefor” (Pfizer Inc., priority 1983, dated 1984).
≈ marks a conversion by molar mass, not a printed value. Read-outs that look alike come from different tables or passages of the source.

How the values were obtained:
Ent. aerog. = test: in vitro MIC in BHI broth, Ent. aerog.; format: cell-based
Staph. epi = test: in vitro MIC in BHI broth, Staph. epi; format: cell-based
Source text: (§1) Generally twelve 2 fold dilutions of the test compound are employed, with initial concentration of the test drug being in the range of 50 to 200 mcg./ml.
(§2) The susceptibility (MIC) of the test organism is accepted as the lowest concentration of compound capable of producing complete inhibition of growth as judged by the naked eye.

E. Coli = test: in vitro MIC in BHI broth, E. Coli; format: cell-based; conditions: Escherichia coli
Neiss. sic. = test: in vitro MIC in BHI broth, Neiss. sic.; format: cell-based
Source text: as §1, §2

Prov. strua. = test: in vitro MIC in BHI broth, Prov. strua.; format: cell-based
Source text: as §1, §2

Strep. pyog. = test: in vitro MIC in BHI broth, Strep. pyog.; format: cell-based
Source text: as §1, §2

Kleb. pn. = test: in vitro MIC in BHI broth, Kleb. pn.; format: cell-based
Kleb. oxy. = test: in vitro MIC in BHI broth, Kleb. oxy.; format: cell-based
Source text: as §1, §2

Past. mult. = test: in vitro MIC in BHI broth, Past. mult.; format: cell-based
Source text: as §1, §2

Staph. aur. = test: in vitro MIC in BHI broth, Staph. aur.; format: cell-based
Source text: as §1, §2

Serr. mar. = test: in vitro MIC in BHI broth, Serr. mar.; format: cell-based
Source text: as §1, §2

Ent. cloac. = test: in vitro MIC in BHI broth, Ent. cloac.; format: cell-based
Source text: as §1, §2

Strep. faec. = test: in vitro MIC in BHI broth, Strep. faec.; format: cell-based
Source text: as §1, §2

H. influ. = test: in vitro MIC in BHI broth, H. influ.; format: cell-based
Source text: as §1, §2

[1] = tested on: erythromycin A and D susceptible organisms and Gram negative microorganisms resistant to erythromycin A and D; test: spectrum of antibacterial activity; format: cell-based
Source text: as §1

[2] = serum levels after oral dosage (micro-biological bioassay) in mice; format: in vivo
Procedure: Additionally, compound (II) is tested in vivo by the well-known mouse protection test, or by a micro-biological (bioassay) determination of serum levels in a variety of mammals (e.g., mouse, rat, dog).

[3] = Ent. aerog. 040, BHI broth, read-out: MIC
[4] = Staph. epi 111, BHI broth, read-out: MIC
[5] = Prov. strua. 013, BHI broth, read-out: MIC
[6] = Strep. pyog. 203, BHI broth, read-out: MIC
[7] = Kleb. pn. 009, BHI broth, read-out: MIC
[8] = Kleb. oxy. 024, BHI broth, read-out: MIC
[9] = Past. mult. 001, BHI broth, read-out: MIC
[10] = Serr. mar. 017, BHI broth, read-out: MIC
[11] = Ent. cloac. 009, BHI broth, read-out: MIC
[12] = Neiss. sic. 000, BHI broth, read-out: MIC

Structure (SMILES): CC[C@H]1OC(=O)[C@H](C)[C@@H](O[C@H]2C[C@@](C)(OC)[C@@H](O)[C@H](C)O2)[C@H](C)[C@@H](O[C@@H]2O[C@H](C)C[C@H](N(C)C)[C@H]2O)[C@](C)(O)C[C@@H](C)C(=O)[C@H](C)[C@@H](O)[C@]1(C)O [(1), Erythromycin A]
- MIC (Ent. aerog.; [3]): > 50 mg/L
- MIC (Staph. epi; [4]): 0.05 mg/L (≈ 0.0681 µM)
- MIC (E. Coli; E. Coli 125): > 50 mg/L
- MIC (E. Coli; E. Coli 129): > 50 mg/L
- MIC (E. Coli; E. Coli 266): > 50 mg/L
- MIC (E. Coli; E. Coli 470): 1.56 mg/L (≈ 2.13 µM)
- MIC (Neiss. sic.): 3.12 mg/L (≈ 4.25 µM)
- MIC (Prov. strua.; [5]): > 50 mg/L
- MIC (Strep. pyog.; [6]): 0.025 mg/L (≈ 0.0341 µM)
- MIC (Kleb. pn.; [7]): > 50 mg/L
- MIC (Kleb. pn.; Kleb. pn. 031, BHI broth): (a) (greater than 50)
- MIC (Kleb. oxy.; [8]): > 50 mg/L
- MIC (Past. mult.; [9]): 0.78 mg/L (≈ 1.06 µM)
- MIC (Staph. aur.; Staph. aur. 005, read-out: MIC): 0.05 mg/L (≈ 0.0681 µM)
- MIC (Staph. aur.; Staph. aur. 052, read-out: MIC): 0.1 mg/L (≈ 0.136 µM)
- MIC (Staph. aur.; Staph. aur. 400): 6.25 mg/L (≈ 8.52 µM)
- MIC (Serr. mar.; [10]): > 50 mg/L
- MIC (Ent. cloac.; [11]): > 50 mg/L
- MIC (Strep. faec.; Strep. faec. 006, BHI broth, read-out: MIC): 0.39 mg/L (≈ 0.531 µM)
- MIC (H. influ.; H. influ. 012): 3.12 mg/L (≈ 4.25 µM)
- MIC (H. influ.; H. influ. 036): 3.12 mg/L (≈ 4.25 µM)
- MIC (H. influ.; H. influ. 038): 1.56 mg/L (≈ 2.13 µM)
- MIC (H. influ.; H. influ. 042): 3.12 mg/L (≈ 4.25 µM)
- MIC (H. influ.; H. influ. 051): 3.12 mg/L (≈ 4.25 µM)
- MIC (H. influ.; H. influ. 073): 3.12 mg/L (≈ 4.25 µM)
- MIC (H. influ.; H. influ. 078): 1.56 mg/L (≈ 2.13 µM)
- MIC (H. influ.; H. influ. 081): 3.12 mg/L (≈ 4.25 µM)

Structure (SMILES): CC[C@H]1OC(=O)[C@H](C)[C@@H](O[C@H]2C[C@@](C)(O)[C@@H](O)[C@H](C)O2)[C@H](C)[C@@H](O[C@@H]2O[C@H](C)C[C@H](N(C)C)[C@H]2O)[C@](C)(O)C[C@@H](C)C(=O)[C@H](C)[C@@H](O)[C@H]1C [(2), Erythromycin D]
- MIC (Ent. aerog.): > 50 mg/L
- MIC (Staph. epi): 0.2 mg/L (≈ 0.284 µM)
- MIC (E. Coli; E. Coli 125): > 50 mg/L
- MIC (E. Coli; E. Coli 129): > 50 mg/L
- MIC (E. Coli; E. Coli 266): > 50 mg/L
- MIC (E. Coli; E. Coli 470): 3.12 mg/L (≈ 4.43 µM)
- MIC (Neiss. sic.): 6.25 mg/L (≈ 8.88 µM)
- MIC (Prov. strua.): > 50 mg/L
- MIC (Strep. pyog.): 0.025 mg/L (≈ 0.0355 µM)
- MIC (Kleb. pn.): > 50 mg/L
- MIC (Kleb. pn.; Kleb. pn. 031, BHI broth): (a) (greater than 50)
- MIC (Kleb. oxy.): > 50 mg/L
- MIC (Past. mult.): 6.25 mg/L (≈ 8.88 µM)
- MIC (Staph. aur.; Staph. aur. 005): 0.39 mg/L (≈ 0.554 µM)
- MIC (Staph. aur.; Staph. aur. 052): 0.39 mg/L (≈ 0.554 µM)
- MIC (Staph. aur.; Staph. aur. 400): 6.25 mg/L (≈ 8.88 µM)
- MIC (Serr. mar.): > 50 mg/L
- MIC (Ent. cloac.): > 50 mg/L
- MIC (Strep. faec.): 0.39 mg/L (≈ 0.554 µM)
- MIC (H. influ.; H. influ. 012): 25 mg/L (≈ 35.5 µM)
- MIC (H. influ.; H. influ. 036): 50 mg/L (≈ 71 µM)
- MIC (H. influ.; H. influ. 038): 25 mg/L (≈ 35.5 µM)
- MIC (H. influ.; H. influ. 042): 25 mg/L (≈ 35.5 µM)
- MIC (H. influ.; H. influ. 051): 12.5 mg/L (≈ 17.8 µM)
- MIC (H. influ.; H. influ. 073): 50 mg/L (≈ 71 µM)
- MIC (H. influ.; H. influ. 078): 12.5 mg/L (≈ 17.8 µM)
- MIC (H. influ.; H. influ. 081): 25 mg/L (≈ 35.5 µM)

Structure (SMILES): CC[C@H]1OC(=O)[C@H](C)[C@@H](O[C@H]2C[C@@](C)(OC)[C@@H](O)[C@H](C)O2)[C@H](C)[C@@H](O[C@@H]2O[C@H](C)C[C@H](N(C)C)[C@H]2O)[C@](C)(O)C[C@@H](C)CN(C)[C@H](C)[C@@H](O)[C@]1(C)O [(3), 9-deoxo-9a-methyl-9a-aza-9a-homoerythromycin A]
- MIC (Staph. epi; [4]): 0.1 mg/L (≈ 0.134 µM)
- MIC (E. Coli; E. Coli 129): 6.25 mg/L (≈ 8.34 µM)
- MIC (E. Coli; E. Coli 266): 6.25 mg/L (≈ 8.34 µM)
- MIC (E. Coli; E. Coli 470): 0.78 mg/L (≈ 1.04 µM)
- MIC (Neiss. sic.; [12]): 0.39 mg/L (≈ 0.521 µM)
- MIC (Prov. strua.; [5]): 50 mg/L (≈ 66.8 µM)
- MIC (Strep. pyog.; [6]): 0.025 mg/L (≈ 0.0334 µM)
- MIC (Kleb. oxy.; [8]): 25 mg/L (≈ 33.4 µM)
- MIC (Past. mult.; [9]): 0.1 mg/L (≈ 0.134 µM)
- MIC (Staph. aur.; Staph. aur. 005, read-out: MIC): 0.2 mg/L (≈ 0.267 µM)
- MIC (Staph. aur.; Staph. aur. 052, read-out: MIC): 0.39 mg/L (≈ 0.521 µM)
- MIC (Staph. aur.; Staph. aur. 400, read-out: MIC): 25 mg/L (≈ 33.4 µM)
- MIC (Serr. mar.; [10]): 50 mg/L (≈ 66.8 µM)
- MIC (Ent. cloac.; [11]): 25 mg/L (≈ 33.4 µM)
- MIC (Strep. faec.): 1.56 mg/L (≈ 2.08 µM)
- MIC (H. influ.; H. influ. 036, read-out: MIC): 0.78 mg/L (≈ 1.04 µM)
- MIC (H. influ.; H. influ. 038, read-out: MIC): 0.78 mg/L (≈ 1.04 µM)
- MIC (H. influ.; H. influ. 042, read-out: MIC): 0.78 mg/L (≈ 1.04 µM)
- MIC (H. influ.; H. influ. 051): 1.56 mg/L (≈ 2.08 µM)
- MIC (H. influ.; H. influ. 073, read-out: MIC): 0.78 mg/L (≈ 1.04 µM)
- MIC (H. influ.; H. influ. 078, read-out: MIC): 0.39 mg/L (≈ 0.521 µM)
- MIC (H. influ.; H. influ. 081, read-out: MIC): 0.78 mg/L (≈ 1.04 µM)

Structure (SMILES): CC[C@H]1OC(=O)[C@H](C)[C@@H](O[C@H]2C[C@@](C)(O)[C@@H](O)[C@H](C)O2)[C@H](C)[C@@H](O[C@@H]2O[C@H](C)C[C@H](N(C)C)[C@H]2O)[C@](C)(O)C[C@@H](C)CN(C)[C@H](C)[C@@H](O)[C@H]1C [Compound (II), 9-deoxo-9a-methyl-9a-aza-9a-homoerythromycin D]
- MIC (Ent. aerog.; [3]): 50 mg/L (≈ 69.5 µM)
- MIC (Staph. epi; [4]): 0.39 mg/L (≈ 0.542 µM)
- MIC (E. Coli; E. Coli 125): 25 mg/L (≈ 34.8 µM)
- MIC (E. Coli; E. Coli 129): 12.5 mg/L (≈ 17.4 µM)
- MIC (E. Coli; E. Coli 266): 12.5 mg/L (≈ 17.4 µM)
- MIC (E. Coli; E. Coli 470): 0.39 mg/L (≈ 0.542 µM)
- MIC (Neiss. sic.; [12]): 0.78 mg/L (≈ 1.08 µM)
- MIC (Prov. strua.; [5]): > 50 mg/L
- MIC (Strep. pyog.; [6]): 0.025 mg/L (≈ 0.0348 µM)
- MIC (Kleb. pn.; [7]): 50 mg/L (≈ 69.5 µM)
- MIC (Kleb. pn.; Kleb. pn. 031, BHI broth): 50 micrograms/ml.
- MIC (Kleb. oxy.; [8]): 50 mg/L (≈ 69.5 µM)
- spectrum of antibacterial activity [1]: relatively broad spectrum of antibacterial activity which includes erythromycin A and D susceptible organisms and, in addition, many Gram negative microorganisms resistant to erythromycin A and D
- MIC (Past. mult.; [9]): 0.2 mg/L (≈ 0.278 µM)
- MIC (Staph. aur.; Staph. aur. 005, read-out: MIC): 0.39 mg/L (≈ 0.542 µM)
- MIC (Staph. aur.; Staph. aur. 052, read-out: MIC): 0.78 mg/L (≈ 1.08 µM)
- MIC (Staph. aur.; Staph. aur. 400, read-out: MIC): > 50 mg/L
- MIC (Serr. mar.; [10]): > 50 mg/L
- MIC (Ent. cloac.; [11]): > 50 mg/L
- absorption after oral dosage [2]: exceptionally well absorbed
- serum levels [2]: exceptionally high and long lasting serum levels
- MIC (H. influ.; H. influ. 012, read-out: MIC): 3.12 mg/L (≈ 4.34 µM)
- MIC (H. influ.; H. influ. 036, read-out: MIC): 3.12 mg/L (≈ 4.34 µM)
- MIC (H. influ.; H. influ. 038, read-out: MIC): 1.56 mg/L (≈ 2.17 µM)
- MIC (H. influ.; H. influ. 042, read-out: MIC): 3.12 mg/L (≈ 4.34 µM)
- MIC (H. influ.; H. influ. 051, read-out: MIC): 3.12 mg/L (≈ 4.34 µM)
- MIC (H. influ.; H. influ. 073, read-out: MIC): 0.39 mg/L (≈ 0.542 µM)
- MIC (H. influ.; H. influ. 078, read-out: MIC): 0.78 mg/L (≈ 1.08 µM)
- MIC (H. influ.; H. influ. 081, read-out: MIC): 3.12 mg/L (≈ 4.34 µM)
